“Also recorded” adds a separate entry of the source. Where two headings read alike, the source gives them in different places.
Key:
[1] = target: T1, WT CB2 (Homo sapiens, UniProt P34972); assay: pGlo-Sensor-22F cAMP accumulation assay, WT CB2; assay type: cell-based; conditions: for EC50: agonist dose-response on CB2, vehicle control (no Ec2la), read-out: pEC50/pIC50 values (converted)
T1 construct: expressed in transfected cells; host or cells: HEK293
Source text: Compounds were drawn using ChemDraw.

[2] = target: CB2 mutant M157A (Homo sapiens, UniProt P34972, M157A); assay: cAMP accumulation assay, CB2 mutant M157A; conditions: in the presence of JWH133
Chain of CB2 mutant M157A (P34972 whole entry M157A): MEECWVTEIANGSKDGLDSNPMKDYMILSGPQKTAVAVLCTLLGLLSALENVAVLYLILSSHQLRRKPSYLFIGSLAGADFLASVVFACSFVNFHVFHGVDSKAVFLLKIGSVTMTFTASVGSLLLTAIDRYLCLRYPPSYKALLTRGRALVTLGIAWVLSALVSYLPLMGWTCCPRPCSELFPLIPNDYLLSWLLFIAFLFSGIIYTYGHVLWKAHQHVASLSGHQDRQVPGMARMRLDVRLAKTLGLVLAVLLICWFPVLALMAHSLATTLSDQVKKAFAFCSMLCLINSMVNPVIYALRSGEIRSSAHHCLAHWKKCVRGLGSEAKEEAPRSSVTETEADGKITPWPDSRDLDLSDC
Source text: (§2) Primers were designed for the following mutations: F72^2.42A, L125^3.44A, L126^3.45A, I129^3.48A, L133^3.52A, T153^4.45A, I156^4.48A, M157^4.49A, L160^4.52A, F197^5.46A, and L201^5.50A (Table S3). Polymerase chain reactions (PCR) using the Bio-Rad T100TM Thermal Cycler and Applied Biosystems Veriti 96 Well Thermal Cycler to introduce the desired mutations within 3× HA-CB2 (cDNA).
(§3) HEK293 (ATCC CRL-1573) adherent cells were passaged using Dulbecco’s Modified Eagle’s Medium (DMEM)-high glucose (Sigma-Aldrich). This DMEM was supplemented with penicillin (100 U/mL), streptomycin (100 μg/mL), and heat inactivated fetal bovine serum (FBS, 10%) (PAN-Biotech). […]
(§4) After 24 h of incubation, the transfected HEK293 cells were then subject to starvation (2 h) with serum-free DMEM (100 μL/well). […] Bioluminescence was then measured using the CLARIOstar Plus Plate Reader (BMG LabTech, Germany). Prior to injecting the treatment ligands, approximately 5–10 basal readings were performed until stabilization was reached. Bioluminescence was measured for a total of 45 cycles (1 min per cycle, 1 s integration time, without filter, a fixed gain of 3000 and autofocus).
(§5) Data from signaling experiments were analyzed using GraphPad Prism, version 9.4.1 software (GraphPad Software, Inc.). […]

[3] = target: CB2 mutant I129A (Homo sapiens, UniProt P34972, I129A); assay: cAMP accumulation assay, CB2 mutant I129A; conditions: in the presence of JWH133
Chain of CB2 mutant I129A (P34972 whole entry I129A): as the sequence (P34972 whole entry M157A) above, with I129A, A157M counted along it
Source text: as §2, §3, §4, §5

[4] = target: CB2 mutant L126A (Homo sapiens, UniProt P34972, L126A); assay: cAMP accumulation assay, CB2 mutant L126A; conditions: in the presence of JWH133
Chain of CB2 mutant L126A (P34972 whole entry L126A): as the sequence (P34972 whole entry M157A) above, with L126A, A157M counted along it
Source text: as §2, §3, §4, §5

[5] = target: CB2 mutant F197A (Homo sapiens, UniProt P34972, F197A); assay: cAMP accumulation assay, CB2 mutant F197A; conditions: in the presence of JWH133
Chain of CB2 mutant F197A (P34972 whole entry F197A): as the sequence (P34972 whole entry M157A) above, with A157M, F197A counted along it
Source text: as §2, §3, §4, §5

[6] = target: CB2 mutant L160A (Homo sapiens, UniProt P34972, L160A); assay: cAMP accumulation assay, CB2 mutant L160A; conditions: in the presence of JWH133
Chain of CB2 mutant L160A (P34972 whole entry L160A): as the sequence (P34972 whole entry M157A) above, with A157M, L160A counted along it
Source text: as §2, §3, §4, §5

[7] = target: CB2 mutant T153A (Homo sapiens, UniProt P34972, T153A); assay: cAMP accumulation assay, CB2 mutant T153A; conditions: in the presence of JWH133
Chain of CB2 mutant T153A (P34972 whole entry T153A): as the sequence (P34972 whole entry M157A) above, with T153A, A157M counted along it
Source text: as §2, §3, §4, §5

[8] = target: CB2 mutant L125A (Homo sapiens, UniProt P34972, L125A); assay: cAMP accumulation assay, CB2 mutant L125A; conditions: in the presence of JWH133
Chain of CB2 mutant L125A (P34972 whole entry L125A): as the sequence (P34972 whole entry M157A) above, with L125A, A157M counted along it
Source text: as §2, §3, §4, §5

[9] = target: T1, WT CB2; assay: AlphaLISA SureFire Ultra p-ERK 1/2 assay, WT CB2; assay type: cell-based; conditions: 1 μM JWH133 + 10 μM Ec2la
Experimental: (§1) Culture media were removed and replaced with allosteric modulator (45 μL/well) prepared in serum-free DMEM and incubated (RT, 30 min). The cells were then stimulated with agonist (5 μL/well) prepared in serum-free DMEM and incubated (RT, 10 min). All subsequent reagents were used from the AlphaLISA SureFire Ultra p-ERK 1/2 (Thr202/Tyr204) Assay Kit (PerkinElmer). The medium was removed, freshly prepared 1× lysis buffer (50 μL/well) was added, and the plate was agitated on a plate shaker (RT, 10 min, 350 rpm). The lysates (10 μL) were transferred to a 384-well OptiPlate (PerkinElmer), and the acceptor mix (5 μL) was added to each well under subdued light. The plate was sealed, covered with foil, and incubated (RT, 1 h). Donor mix (5 μL) was added to each well under subdued light. The plate was sealed, covered with foil, and incubated in the dark (RT, 1 h). The plate was read using CLARIOstar Plus Plate Reader (BMG LabTech, Germany) using standard AlphaLISA settings with an […].

[10] = system: CB2 single mutants; assay: AlphaLISA SureFire Ultra p-ERK 1/2 assay, CB2 single mutants; assay type: cell-based, human; conditions: 1 μM JWH133 + 10 μM Ec2la
Experimental: as §1

[11] = system: CB2 double mutants; assay: AlphaLISA SureFire Ultra p-ERK 1/2 assay, CB2 double mutants; assay type: cell-based, human; conditions: 1 μM JWH133 + 10 μM Ec2la
Experimental: as §1

[12] = system: CB1; set-up: method as in PMID 29990428; conditions: CB1, Chinese hamster ovary cells; cited from earlier work
[13] = system: CB2; set-up: method as in PMID 29990428; conditions: CB2, Chinese hamster ovary cells; cited from earlier work
[14] = system: CB2; set-up: method as in PMID 29990428; conditions: agonists CP 55,940 and 2-AG; cited from earlier work
[15] = target: CB2 mutant F72A (Homo sapiens, UniProt P34972, F72A); assay: cAMP accumulation assay, CB2 mutant F72A; conditions: in the presence of JWH133
Chain of CB2 mutant F72A (P34972 whole entry F72A): as the sequence (P34972 whole entry M157A) above, with F72A, A157M counted along it
Source text: as §2, §3, §4, §5

[16] = target: CB2 mutant L133A (Homo sapiens, UniProt P34972, L133A); assay: cAMP accumulation assay, CB2 mutant L133A; conditions: in the presence of JWH133
Chain of CB2 mutant L133A (P34972 whole entry L133A): as the sequence (P34972 whole entry M157A) above, with L133A, A157M counted along it
Source text: as §2, §3, §4, §5

[17] = target: CB2 mutant L201A (Homo sapiens, UniProt P34972, L201A); assay: cAMP accumulation assay, CB2 mutant L201A; conditions: in the presence of JWH133
Chain of CB2 mutant L201A (P34972 whole entry L201A): as the sequence (P34972 whole entry M157A) above, with A157M, L201A counted along it
Source text: as §2, §3, §4, §5

[18] = system: CB1 receptor; set-up: method as in PMID 22343625; conditions: cited from earlier work
[19] = system: CB1 receptor; set-up: method as in PMID 22343625; conditions: CB1, in the presence of orthosteric ligand CP 55,940; cited from earlier work

T1 sequence (P34972 whole entry): as the sequence (P34972 whole entry M157A) above, with A157M counted along it

CCCCC/C=C\C/C=C\C/C=C\C/C=C\CCCC(=O)OC(CO)CO [2-AG, 2-arachidonoylglycerol]
EC50 ([1]; Figure S2): 48.3 nM
EC50 ([1]; Figure S3): 202 nM

C=C(C)[C@@H]1CCC(C)=C[C@H]1c1c(O)cc(CCCCC)cc1O [CBD, Cannabidiol]
allosteric effect on cAMP signaling [1]: acts as a NAM
orthosteric activity in cAMP assay [1]: acting as an agonist
allosteric signal in cAMP assay [2]: loss and/or alteration in the allosteric signal
allosteric signal in cAMP assay [3]: loss and/or alteration in the allosteric signal
allosteric signal in cAMP assay [4]: loss and/or alteration in the allosteric signal
allosteric signal in cAMP assay [5]: loss and/or alteration in the allosteric signal
allosteric signal in cAMP assay [6]: still demonstrating an allosteric effect
allosteric signal in cAMP assay [7]: still demonstrating an allosteric effect
allosteric signal in cAMP assay [8]: loss and/or alteration in the allosteric signal

Cc1c(Br)cn(Cc2ccc(F)cc2)c(=O)c1NC(=O)C1CCCCCC1 [Ec2la]
allosteric effect on cAMP signaling [1]: possible PAM-antagonistic effect; also recorded: acts as a PAM
allosteric effect on cAMP signaling at nanomolar concentrations [1]: did not demonstrate an allosteric effect; also recorded: no allosteric effect
allosteric effect on cAMP signaling ([1]; WT CB2, in the presence of 2-AG, Ec2la 1 and 10 μM): negative allosteric effect; also recorded: negative allosteric shift
allosteric effect on cAMP signaling ([1]; WT CB2, in the presence of CP 55,940, Ec2la 1 and 10 μM): slight negative allosteric effect; also recorded: negative allosteric shift
allosteric effect on cAMP signaling ([1]; WT CB2, in the presence of JWH133, modulator 0.1, 1, 10 μM): acts like a NAM
allosteric effect on p-ERK 1/2 signaling [9]: acts as a NAM
allosteric effect on p-ERK 1/2 signaling [10]: either no effect or an increase in the p-ERK 1/2 signal
allosteric effect on p-ERK 1/2 signaling [11]: either no effect to the allosteric modulator-induced changes on the signal or a slight decrease in the signal
modality in [3H]CP 55,940 binding studies [12]: PAM
modality in [3H]CP 55,940 binding studies [13]: PAM
effect on agonist-stimulated [35S]GTPγS binding [14]: greatly enhanced
allosteric signal in cAMP assay [15]: loss and/or alteration in allosteric signal
allosteric signal in cAMP assay [2]: loss and/or alteration in allosteric signal
allosteric signal in cAMP assay [3]: loss and/or alteration in allosteric signal
allosteric signal in cAMP assay [4]: loss and/or alteration in allosteric signal
allosteric signal in cAMP assay [5]: loss and/or alteration in allosteric signal
allosteric signal in cAMP assay [6]: loss and/or alteration in allosteric signal
allosteric signal in cAMP assay [16]: loss and/or alteration in allosteric signal
allosteric signal in cAMP assay [7]: still demonstrating an allosteric effect
allosteric signal in cAMP assay [17]: still demonstrating an allosteric effect
allosteric signal in cAMP assay [8]: still demonstrating an allosteric effect

CCc1c(C(=O)NCCc2ccc(N3CCCCC3)cc2)[nH]c2ccc(Cl)cc12 [ORG27569]
allosteric effect in ERK 1/2 signaling [18]: positive allosteric effect
allosteric effect with radioligand binding [19]: negative allosteric effect

Reference: article PMC11833715, “Identification of a Cannabinoid Receptor 2 Allosteric Site Using Computational Modeling and Pharmacological Analysis” (ACS Pharmacology & Translational Science, 2025)
